Assays:
recombinant CHO cells [1] = type: cell-based
Description: The present inventors confirmed whether the expression of antisense RNA of caspase-3 could inhibit the NaBu-induced apoptosis. Particularly, control cells and B3 cells obtained in Example <1-1> were seeded at a concentration of 4×10^4 cells/ml in 6-well culture plates containing 5 ml of an alpha-minimum essential medium supplemented with 5% dialyzed fetal bovine serum and 0.32 μM of methotrexate. After three days of cultivation, the spent medium was replaced with fresh medium containing 0-5 mM of sodium butyrate. Cells were harvested periodically. Viable cells were distinguished from dead cells using the trypan blue dye exclusion method to determine cell viability. In addition, secreted humanized antibody concentration was measured by enzyme-linked immunosorbent assay (ELISA).

recombinant CHO cells [2] = assay: LDH activity in culture supernatant (degree of cell lysis) after sodium butyrate; type: cell-based; details: control cells, first two days after addition of 5 mM sodium butyrate
Source text: The integrity of protein product is influenced by the degree of cell lysis because some proteolytic enzymes and glycosidases released from the cellular membrane ruptured-dead cells influence the molecular integrity of the product (Goldman, et al., 1997, Cytotechnology, 23, 103-111; Hansen, et al., 1997, Cytotechnology, 24, 227-234; Teige, et al., 1994, J. Biotechnol., 34, 101-105). The amount of lysed cells can be determined by measuring the amount of lactate dehydrogenase (LDH) released into the culture supernatant (Cruz, et al., 2000, Biotechnol. Lett., 22, 677-682). Thus, to determine the degree of cell lysis, the LDH activity in culture supernatant was measured daily after treatment with 5 mM of sodium butyrate.

## CCCC(=O)[O-].[Na+] [sodium butyrate]
Recombinant CHO cells [1]; 0-5 mM sodium butyrate, control and B3 CHO cells
  cytotoxic effect on the cell growth: dose-dependent
Recombinant CHO cells [1]; 5 mM sodium butyrate
  cellular apoptosis: induced
Recombinant CHO cells [1]; three days after treatment with 5 mM sodium butyrate, control cells (null pcDNA3.1-zeo(+))
  viability of control cells: under 50%
Recombinant CHO cells [2]
  LDH activity in culture supernatant: increased rapidly

— US6943022B2, “Inhibition of apoptosis by the expression of antisense RNA of caspase-3” (Korea Advanced Institute of Science and Technology, priority 2001, dated 2005)
